Data: patent EP4692090A1 (Shanghai Fosun Pharmaceutical (Group) Co., Ltd., priority 2023, dated 2024)
Like-named read-outs stand apart in the source and are kept apart here.

How the values were obtained:
LoVo cells = test: LoVo cell proliferation assay (CellTiter-Glo); type: cell-based; conditions: LoVo cells, 2,000 cells per well, 5 days incubation, CellTiter-Glo, maximum concentration 10 µM, 9 concentrations, read-out: LoVo IC50
Summary of the method: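 LoVo cells, 2,000 per well, were treated after overnight attachment with 9-point 3-fold dilutions from 10 µM for 5 days at 37 °C. Viability was read by CellTiter-Glo luminescence. Inhibition % was taken relative to DMSO control, and IC50 came from the concentration–inhibition curve.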

ATR kinase = molecular target: T1, ATR kinase (Homo sapiens, UniProt Q13535); test: Inhibitory effect on ATR kinase activity (Caliper mobility shift, FAM-labeled RAD17 peptide substrate); type: biochemical; conditions: 1 nM ATR kinase (Eurofins), 28°C for 3 hours, maximum concentration 1 µM, 10 concentrations, read-out: ATR kinase IC50
T1 construct: purchased Eurofins 14-953
T1 sequence (Q13535 whole entry): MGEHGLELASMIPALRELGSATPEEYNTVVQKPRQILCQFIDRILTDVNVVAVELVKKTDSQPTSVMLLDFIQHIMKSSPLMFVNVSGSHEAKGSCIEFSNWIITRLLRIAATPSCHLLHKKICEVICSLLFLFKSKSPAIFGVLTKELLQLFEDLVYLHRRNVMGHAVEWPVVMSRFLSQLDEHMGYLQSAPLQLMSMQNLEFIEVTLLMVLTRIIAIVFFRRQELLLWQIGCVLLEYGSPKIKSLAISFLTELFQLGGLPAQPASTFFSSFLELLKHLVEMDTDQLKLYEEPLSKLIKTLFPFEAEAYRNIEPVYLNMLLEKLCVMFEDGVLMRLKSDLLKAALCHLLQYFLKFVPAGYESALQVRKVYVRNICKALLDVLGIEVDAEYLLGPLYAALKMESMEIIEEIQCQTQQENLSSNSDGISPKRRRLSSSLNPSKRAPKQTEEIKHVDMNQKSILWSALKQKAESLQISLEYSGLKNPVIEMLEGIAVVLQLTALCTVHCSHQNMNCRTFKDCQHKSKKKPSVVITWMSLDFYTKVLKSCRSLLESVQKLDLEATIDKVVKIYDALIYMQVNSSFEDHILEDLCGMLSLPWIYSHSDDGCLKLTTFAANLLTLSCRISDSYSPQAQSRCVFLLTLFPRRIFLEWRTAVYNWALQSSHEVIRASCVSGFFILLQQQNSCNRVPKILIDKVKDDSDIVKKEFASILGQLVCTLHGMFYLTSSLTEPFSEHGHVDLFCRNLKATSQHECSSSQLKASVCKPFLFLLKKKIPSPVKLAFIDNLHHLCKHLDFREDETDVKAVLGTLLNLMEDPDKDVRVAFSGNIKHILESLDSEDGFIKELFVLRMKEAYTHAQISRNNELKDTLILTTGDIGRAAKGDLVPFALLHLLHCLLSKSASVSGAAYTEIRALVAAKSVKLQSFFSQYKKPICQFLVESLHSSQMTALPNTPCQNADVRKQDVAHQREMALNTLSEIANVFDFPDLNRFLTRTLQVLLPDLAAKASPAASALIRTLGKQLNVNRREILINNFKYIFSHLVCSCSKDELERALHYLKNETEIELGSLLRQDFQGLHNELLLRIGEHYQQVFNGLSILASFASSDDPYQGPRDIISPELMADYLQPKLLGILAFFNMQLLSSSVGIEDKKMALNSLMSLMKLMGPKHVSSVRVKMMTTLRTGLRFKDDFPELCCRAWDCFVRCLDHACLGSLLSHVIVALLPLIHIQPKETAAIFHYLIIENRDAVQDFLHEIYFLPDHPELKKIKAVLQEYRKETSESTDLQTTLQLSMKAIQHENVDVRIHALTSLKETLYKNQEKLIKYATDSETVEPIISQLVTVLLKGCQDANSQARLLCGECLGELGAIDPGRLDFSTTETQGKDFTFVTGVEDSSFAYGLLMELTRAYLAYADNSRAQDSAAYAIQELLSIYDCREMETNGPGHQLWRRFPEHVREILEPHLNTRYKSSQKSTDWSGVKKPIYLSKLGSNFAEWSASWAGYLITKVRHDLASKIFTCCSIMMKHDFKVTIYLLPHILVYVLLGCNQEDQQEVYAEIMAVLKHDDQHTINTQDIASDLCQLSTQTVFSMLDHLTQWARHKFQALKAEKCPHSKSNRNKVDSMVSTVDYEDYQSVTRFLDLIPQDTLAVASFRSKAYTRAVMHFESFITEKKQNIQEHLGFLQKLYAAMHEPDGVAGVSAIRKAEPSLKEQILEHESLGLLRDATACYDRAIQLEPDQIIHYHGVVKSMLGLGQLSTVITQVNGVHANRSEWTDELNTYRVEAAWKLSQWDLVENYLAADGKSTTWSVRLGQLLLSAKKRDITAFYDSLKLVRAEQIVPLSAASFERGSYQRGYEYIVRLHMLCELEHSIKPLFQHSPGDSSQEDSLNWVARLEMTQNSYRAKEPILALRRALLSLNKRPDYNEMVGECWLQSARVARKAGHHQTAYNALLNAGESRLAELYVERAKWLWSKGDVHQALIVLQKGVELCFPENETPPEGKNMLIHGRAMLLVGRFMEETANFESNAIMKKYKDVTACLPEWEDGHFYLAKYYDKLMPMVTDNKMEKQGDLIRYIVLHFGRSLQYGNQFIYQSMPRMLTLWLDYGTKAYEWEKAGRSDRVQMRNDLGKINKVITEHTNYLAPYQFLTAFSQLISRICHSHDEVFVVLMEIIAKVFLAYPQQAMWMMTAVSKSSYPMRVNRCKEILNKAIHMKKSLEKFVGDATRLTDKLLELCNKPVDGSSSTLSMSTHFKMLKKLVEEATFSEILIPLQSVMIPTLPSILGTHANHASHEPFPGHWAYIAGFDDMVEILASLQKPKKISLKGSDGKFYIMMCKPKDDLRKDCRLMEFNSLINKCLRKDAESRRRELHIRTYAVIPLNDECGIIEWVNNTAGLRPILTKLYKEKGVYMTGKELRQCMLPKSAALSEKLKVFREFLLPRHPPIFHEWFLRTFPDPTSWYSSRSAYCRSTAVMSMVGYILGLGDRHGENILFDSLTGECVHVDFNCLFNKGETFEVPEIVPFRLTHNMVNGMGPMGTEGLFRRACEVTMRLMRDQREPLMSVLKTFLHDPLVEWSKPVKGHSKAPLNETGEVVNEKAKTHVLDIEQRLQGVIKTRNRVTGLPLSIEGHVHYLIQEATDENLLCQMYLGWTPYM
T1 sequence (Q8WXE1 whole entry partner): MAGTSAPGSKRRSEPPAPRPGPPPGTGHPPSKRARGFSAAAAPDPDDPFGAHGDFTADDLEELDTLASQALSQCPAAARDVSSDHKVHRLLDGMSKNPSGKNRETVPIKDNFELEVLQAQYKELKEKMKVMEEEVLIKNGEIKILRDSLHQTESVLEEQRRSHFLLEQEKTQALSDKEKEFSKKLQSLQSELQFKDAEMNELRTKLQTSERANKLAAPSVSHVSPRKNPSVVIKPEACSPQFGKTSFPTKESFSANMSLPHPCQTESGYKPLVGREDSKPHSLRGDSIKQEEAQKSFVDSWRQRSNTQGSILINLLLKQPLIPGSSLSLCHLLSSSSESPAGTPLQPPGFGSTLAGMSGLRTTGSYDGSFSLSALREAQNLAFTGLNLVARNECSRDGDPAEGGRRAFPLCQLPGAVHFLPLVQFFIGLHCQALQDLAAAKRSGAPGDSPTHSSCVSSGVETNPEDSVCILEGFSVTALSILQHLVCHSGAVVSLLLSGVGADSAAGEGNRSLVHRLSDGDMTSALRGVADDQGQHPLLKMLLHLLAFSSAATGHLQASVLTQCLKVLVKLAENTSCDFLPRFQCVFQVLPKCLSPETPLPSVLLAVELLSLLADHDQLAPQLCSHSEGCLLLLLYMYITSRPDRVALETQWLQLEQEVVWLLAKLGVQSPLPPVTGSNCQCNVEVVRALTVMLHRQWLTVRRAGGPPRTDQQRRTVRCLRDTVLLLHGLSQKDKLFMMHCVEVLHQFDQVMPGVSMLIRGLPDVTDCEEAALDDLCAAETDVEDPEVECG
Summary of the method: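 Caliper mobility-shift assay with 1 nM ATR, FAM-labeled RAD17 peptide […] and 5 mM ATP in HEPES pH 7.5 with 10 mM MnCl2, run 3 h at 28 °C and stopped with EDTA. Compounds were tested in 10-point 3-fold dilutions from 1 µM. IC50 was fitted from % inhibition of substrate conversion versus blank control.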

Row | SMILES | IC50 (LoVo cells) [nM] | IC50 (ATR kinase) [nM] | IC50 (LoVo cells; Homo sapiens, LoVo, 120 h) [nM]
1 | CC(C)C1c2cc(N3CCOC[C@H]3C)nc3c2c(nn3-c2cc[nH]n2)CCN1C (single isomer, unassigned) [Compound 141B] | < 100 | < 10 | –
2 | C[C@@H]1COCCN1c1cc2c3c(nn(-c4cc[nH]n4)c3n1)CCN(S(=O)(=O)C1CC1)C2 [Compound 23, (R)-4-(7-(cyclopropylsulfonyl)-2-(1H-pyrazol-3-yl)-6,7,8,9-tetrahydro-2H-1,2,3,7-tetraazabenzo[cd]azulen-4-yl)-3-methylmorpholine] | – | < 10 | 100 to 1000
3 | CC1Cn2nc(-c3cc[nH]n3)c3nc(N4CCOC[C@H]4C)cc(c32)N(C(C)C)C1=O (stereo partly drawn) [Compound 119, 6-isopropyl-8-methyl-4-((R)-3-methylmorpholino)-2-(1H-pyrazol-3-yl)-8,9-dihydro-1,3,6,9a-tetraazabenzo[cd]azulene-7(6H)-one] | – | 10 to 100 | 100 to 1000
4 | CC(C)C1(O)CCn2nc(-c3cc[nH]n3)c3nc(N4CCOC[C@H]4C)cc1c32 (single isomer, unassigned) [Compound 72A] | > 1000 | 100 to 1000 | –
